Experimental findings from patent US20080188481A1 (priority 2002, published 2008) are described below.

Broadly, the EC50 is the midpoint of the concentration-response curve.

Where only a bound is given, the exact number is not on record here.

In the assay the test system is HIV-1 single-round infectious reporter virus. Kind of assay: Single-round infectious HIV-1 luciferase reporter virus infection of HeLa CD4 cells (antiviral EC50). It counts as cell-based. The note with it: Human immunodeficiency virus 1, HeLa, 72 h, read-out: EC50 Group from Table 1. As to the method: • Virus production—Human embryonic Kidney cell line, 293T, was propagated in Dulbecco's Modified Eagle Medium (Invitrogen, Carlsbad, Calif.) containing 10% fetal Bovine serum (FBS, Sigma, St. Louis, Mo.). • Virus infection—Human epithelial cell line, HeLa, expressing the HIV-1 receptor CD4 was propagated in Dulbecco's Modified Eagle Medium (Invitrogen, Carlsbad, Calif.) containing 10% fetal Bovine serum (FBS, Sigma, St. Louis, Mo.) and supplemented with 0.2 mg/mL Geneticin (Invitrogen, Carlsbad, Calif.). Virus-Single-round infectious reporter virus was produced by co-transfecting human embryonic Kidney 293 cells with an HIV-1 envelope DNA expression vector and a proviral cDNA containing an envelope deletion mutation and the luciferase reporter gene inserted in place of HIV-1 nef sequences (Chen et al, Ref. 41). Transfections were performed using lipofectAMINE PLUS reagent as described by the manufacturer (Invitrogen, Carlsbad, Calif.).
• 1. HeLa CD4 cells were plated in 96 well plates at a cell density of 1×10^4 cells per well in 100 μl Dulbecco's Modified Eagle Medium containing 10% fetal Bovine serum and incubated overnight. • 2. Compound was added in a 2 μl dimethylsulfoxide solution, so that the final assay concentration would be ≦10 μM. • 3. 100 μl of single-round infectious reporter virus in Dulbecco's Modified Eagle Medium was then added to the plated cells and compound at an approximate multiplicity of infection (MOI) of 0.01, resulting in a final volume of 200 μl per well. • 4. Virally-infected cells were incubated at 37 degrees Celsius, in a CO2 incubator, and harvested 72 h after infection. • 5. Viral infection was monitored by measuring luciferase expression from viral DNA in the infected cells using a luciferase reporter gene assay kit, as described by the manufacturer (Roche Molecular Biochemicals, Indianapolis, Ind.). Infected cell supernatants were removed and 50 μl of lysis buffer was added per well. After 15 minutes, 50 μl of freshly-reconstituted luciferase assay reagent was added per well. Luciferase activity was then quantified by measuring luminescence using a Wallac microbeta scintillation counter. • 6. The percent inhibition for each compound was calculated by quantifying the level of luciferase expression in cells infected in the presence of each compound as a percentage of that observed for cells infected in the absence of compound and subtracting such a determined value from 100. • 7. An EC50 provides a method for comparing the antiviral potency of the compounds of this invention. The effective concentration for fifty percent inhibition (EC50) was calculated with the Microsoft Excel Xlfit curve fitting software. For each compound, curves were generated from percent inhibition calculated at 10 different concentrations by using a four paramenter logistic model (model 205). Table 1 is the key for the data in Table 2.

On to `COc1ncc(OC)c2c(C(=O)C(=O)N3CCC(=C(C#N)c4c(C)sc(C)c4C)CC3)c[nH]c12` [Example 125, 1-[4-(1-Cyano-1-(2,3,5-trimethylthien-4-yl)-methylene)-piperidin-1-yl]-2-(4,7-dimethoxy-6-azaindol-3-yl)-ethane-1,2-dione], for which the EC50 is greater than 5 µM. To `N#CC(=C1CCN(C(=O)C(=O)c2c[nH]c3c(-n4ccc(N)n4)ncc(F)c23)CC1)c1ccccc1` [Example 111, (1-{2-[7-(3-Amino-pyrazol-1-yl)-4-fluoro-1H-pyrrolo[2,3-c]pyridin-3-yl]-2-oxo-acetyl}-piperidin-4-ylidene)-phenyl-acetonitrile] belongs less than 1 µM.

`COc1cnc(-n2cnc(C)n2)c2[nH]cc(C(=O)C(=O)N3CCC(=C(c4ccccc4)c4nnco4)CC3)c12` [Example 131, 1-[4-(1-Phenyl-1-(1,3,4-oxadiazol-2-yl)-methylene)-piperidin-1-yl]-2-[4-methoxy-7-(3-methyl-1,2,4-triazol-1-yl)-6-azaindol-3-y]-ethane-1,2-dione]: the EC50 was less than 1 µM. To `COc1cnc(-n2ccnn2)c2[nH]cc(C(=O)C(=O)N3CCC(=C(c4ccccc4)c4nnc(C5CC5)o4)CC3)c12` [Example 76, 1-[4-(1-Phenyl-1-(5-cyclopropyl-1,3,4-oxadiazol-2-yl)-methylene)-piperidin-1-yl]-2-[4-methoxy-7-(1,2,3-triazol-1-yl)-6-azaindol-3-yl]-ethane-1,2-dione] belongs less than 1 µM; to `COc1cnc(-n2cnc(C)n2)c2[nH]cc(C(=O)C(=O)N3CCC(=C(c4ccccc4)c4nnc(-c5ccccc5)o4)CC3)c12` [Example 135, 1-[4-(1-Phenyl-1-(5-phenyl-1,3,4-oxadiazol-2-yl)-methylene)-piperidin-1-yl]-2-[4-methoxy-7-(3-methyl-1,2,4-triazol-1-yl)-6-azaindol-3-yl]-ethane-1,2-dione], greater than 0.5 µM; to `COc1ncc(OC)c2c(C(=O)C(=O)N3CCC(=C(C#C[Si](C)(C)C)c4ccccc4)CC3)c[nH]c12` [Example 112, 1-[4-(1-Phenyl-1-(2-trimethylsilylethyn-1-yl)-methylene)-piperidin-1-yl]-2-(4,7-dimethoxy-6-azaindol-3-yl)-ethane-1,2-dione], less than 1 µM.

As for `O=C(C(=O)N1CCC(=C(c2ccccc2)c2ccccc2)CC1)c1c[nH]c2ccccc12` [Example 4], the EC50 is 1 to 5 µM.

For the compound `COc1cnc(-n2ccnn2)c2[nH]cc(C(=O)C(=O)N3CCC(=C(c4ccccc4)c4cnn(C)c4)CC3)c12` [Example 142, 1-[4-(1-Phenyl-1-(1-methylpyrazol-4-yl)-methylene)-piperidin-1-yl]-2-(4-methoxy-7-(1,2,3-triazol-1-yl)-6-azaindol-3-yl)-ethane-1,2-dione], the concentration giving a half-maximal response (EC50) was less than 1 µM. Take `COc1ncc(OC)c2c(C(=O)C(=O)N3CCC(=C(C#Cc4ccccc4)c4ccccc4)CC3)c[nH]c12` [Example 118, 1-[4-(1-Phenyl-1-(2-phenylethyn-1-yl)-methylene)-piperidin-1-yl]-2-(4,7-dimethoxy-6-azaindol-3-yl)-ethane-1,2-dione]: the EC50 is less than 1 µM. Then `COc1ncc(OC)c2c(C(=O)C(=O)N3CCC(=C(c4ccccc4)c4ccccn4)CC3)c[nH]c12` [Example 50, 1-[4-(1-Phenyl-1-(pyridin-2-yl)-methylene)-piperidin-1-yl]-2-(4,7-dimethoxy-6-azaindol-3-yl)-ethane-1,2-dione], with less than 1 µM. To `COc1cnc(-n2ccc(C)n2)c2[nH]cc(C(=O)C(=O)N3CCC(=C(c4ccccc4)c4csc(C)n4)CC3)c12` [Example 100] belongs less than 1 µM; to `COc1cnc(-n2cncn2)c2[nH]cc(C(=O)C(=O)N3CCC(=C(c4ccccc4)c4nnc(C)o4)CC3)c12` [Example 79, 1-[4-(1-Phenyl-1-(5-methyl-1,3,4-oxadiazol-2-yl)-methylene)-piperidin-1-yl]-2-[4-methoxy-7-(1,2,4-triazol-1-yl)-6-azaindol-3-yl]-ethane-1,2-dione], less than 1 µM; to `N#CC(=C1CCN(C(=O)C(=O)c2c[nH]c3c(-n4nccn4)ccnc23)CC1)c1ccccc1` [Example 105, {1-[2-Oxo-2-(7-[1,2,3]triazol-2-yl-1H-pyrrolo[3,2-b]pyridin-3-yl)-acetyl]-piperidin-4-ylidene}-phenyl-acetonitrile], less than 1 µM. With `COc1ncc(OC)c2c(C(=O)C(=O)N3CCC(=C(C#CCO)c4ccccc4)CC3)c[nH]c12` [Example 116, 1-[4-(1-Phenyl-1-(2-hydroxymethylethyn-1-yl)-methylene)-piperidin-1-yl]-2-(4,7-dimethoxy-6-azaindol-3-yl)-ethane-1,2-dione], the EC50 was less than 1 µM.

`COc1cnc(-n2ccnn2)c2[nH]cc(C(=O)C(=O)N3CCC(=C(c4ccccc4)c4nnc(C(C)C)o4)CC3)c12` [Example 75, 1-[4-(1-Phenyl-1-(5-isopropyl-1,3,4-oxadiazol-2-yl)-methylene)-piperidin-1-yl]-2-[4-methoxy-7-(1,2,3-triazol-1-yl)-6-azaindol-3-yl]-ethane-1,2-dione]: the EC50 was less than 1 µM. Then `C#CC(=C1CCN(C(=O)C(=O)c2c[nH]c3c(OC)ncc(OC)c23)CC1)c1ccccc1` [Example 113, 1-[4-(1-Phenyl-1-ethynyl-methylene)-piperidin-1-yl]-2-(4,7-dimethoxy-6-azaindol-3-yl)-ethane-1,2-dione], with less than 1 µM. Then `COc1cnc(-n2cnc(C)n2)c2[nH]cc(C(=O)C(=O)N3CCC(=C(c4ccccc4)c4nnc(C)o4)CC3)c12` [Example 80, 1-[4-(1-Phenyl-1-(5-methyl-1,3,4-oxadiazol-2-yl)-methylene)-piperidin-1-yl]-2-[4-methoxy-7-(3-methyl-1,2,4-triazol-1-yl)-6-azaindol-3-yl]-ethane-1,2-dione], with less than 1 µM; and `COc1ncc(OC)c2c(C(=O)C(=O)N3CCC(=C(c4ccccc4)c4cc(C)cs4)CC3)c[nH]c12` [Example 55], with less than 1 µM. On to `COc1cnc(-n2cnc(C)n2)c2[nH]cc(C(=O)C(=O)N3CCC(=C(c4ccccc4)c4cncc(CO)c4)CC3)c12` [Example 120, 1-[4-(1-Phenyl-1-(5-hydroxymethylpyridin-3-yl)-methylene)-piperidin-1-yl]-2-[4-methoxy-7-(3-methyl-1,2,4-triazol-1-yl)-6-azaindol-3-yl]-ethane-1,2-dione], for which the EC50 is less than 1 µM. Then `COc1cnc(-c2cnccn2)c2[nH]cc(C(=O)C(=O)N3CCC(=C(Br)c4ccccc4)CC3)c12` [Example 89], with less than 1 µM; and `COc1cnc(-c2cnccn2)c2[nH]cc(C(=O)C(=O)N3CCC(=C(c4ccccc4)c4csc(C)n4)CC3)c12` [Example 91], with less than 1 µM.

Take `COc1cnc(-c2cnccn2)c2[nH]cc(C(=O)C(=O)N3CCC(=C(C(N)=O)c4ccccc4)CC3)c12` [Example 49]: the EC50 was less than 1 µM. With `O=C(C(=O)N1CCC(=Cc2ccccc2)CC1)c1c[nH]c2c(-c3ncon3)ccc(F)c12` [Example 6], the EC50 is less than 1 µM. Then `N#CC(=C1CCN(C(=O)C(=O)c2c[nH]c3c(-n4cncn4)ncc(F)c23)CC1)c1ccccc1` [Example 110, {1-[2-(4-Fluoro-7-[1,2,4]triazol-1-yl-1H-pyrrolo[2,3-c]pyridin-3-yl)-2-oxo-acetyl]-piperidin-4-ylidene}-phenyl-acetonitrile], with less than 1 µM; and `COc1ncc(OC)c2c(C(=O)C(=O)N3CCC(=C(c4ccccc4)c4nnc(C(F)(F)F)o4)CC3)c[nH]c12` [Example 53, 1-[4-(1-Phenyl-1-(5-trifluoromethyl-1,3,4-oxadiazol-2-yl)-methylene)-piperidin-1-yl]-2-(4,7-dimethoxy-6-azaindol-3-yl)-ethane-1,2-dione], with less than 1 µM.

For `COc1cnc(-n2cnc(C)n2)c2[nH]cc(C(=O)C(=O)N3CCC(=C(c4ccccc4)c4nnc(O)o4)CC3)c12` [Example 83, 1-[4-(1-Phenyl-1-(5-hydroxy-1,3,4-oxadiazol-2-yl)-methylene)-piperidin-1-yl]-2-[4-methoxy-7-(3-methyl-1,2,4-triazol-1-yl)-6-azaindol-3-yl]-ethane-1,2-dione], the EC50 was less than 1 µM.

As for `COc1cnc(-n2ccc(C)n2)c2[nH]cc(C(=O)C(=O)N3CCC(=C(c4ccccc4)c4nnc(C)o4)CC3)c12` [Example 99], the concentration for a half-maximal effect (EC50) is less than 1 µM.
